Reference: the NIST ThermoML archive (doi:10.1016/j.tca.2018.10.018)

Experiment: xn = mol fraction of the nth substance listed
Details: Liquid; for viscosity: Capillary tube (Ostwald / Ubbelohde) method; for mass density: Siemens Coriolis flowmeter

CCCCCCCCCC(=O)OC [methyl decanoate] + CCCCCCC
Details | mass density, 298.15 K [kg/m3] | mass density, 308.15 K [kg/m3] | mass density, 318.15 K [kg/m3] | viscosity, 298.15 K [mPa·s] | viscosity, 308.15 K [mPa·s] | viscosity, 318.15 K [mPa·s]
100 kPa, x1 = 0.101 | 706 | 698 | 689 | 0.465 | 0.394 | 0.339
100 kPa, x1 = 0.202 | 730 | 722 | 713 | 0.549 | 0.454 | 0.375
100 kPa, x1 = 0.299 | 753 | 744 | 736 | 0.655 | 0.52 | 0.418
100 kPa, x1 = 0.403 | 773 | 765 | 757 | 0.779 | 0.613 | 0.486
100 kPa, x1 = 0.501 | 792 | 784 | 776 | 0.912 | 0.716 | 0.565
100 kPa, x1 = 0.601 | 810 | 801 | 793 | 1.071 | 0.843 | 0.669
100 kPa, x1 = 0.698 | 826 | 818 | 809 | 1.257 | 0.999 | 0.8
100 kPa, x1 = 0.799 | 841 | 833 | 825 | 1.461 | 1.173 | 0.951
100 kPa, x1 = 0.902 | 855 | 847 | 839 | 1.67 | 1.351 | 1.104
100 kPa, x1 = 1 | 868 | 860 | 853 | 1.934 | 1.628 | 1.38
3000 kPa, x1 = 0.101 | 709 | 700 | 692 | 0.483 | 0.411 | 0.355
3000 kPa, x1 = 0.202 | 734 | 724 | 717 | 0.575 | 0.475 | 0.394
3000 kPa, x1 = 0.299 | 756 | 747 | 739 | 0.686 | 0.547 | 0.441
3000 kPa, x1 = 0.403 | 776 | 767 | 760 | 0.815 | 0.644 | 0.514
3000 kPa, x1 = 0.501 | 795 | 786 | 778 | 0.955 | 0.752 | 0.597
3000 kPa, x1 = 0.601 | 812 | 804 | 796 | 1.119 | 0.885 | 0.704
3000 kPa, x1 = 0.698 | 828 | 820 | 812 | 1.31 | 1.045 | 0.84
3000 kPa, x1 = 0.799 | 843 | 835 | 827 | 1.52 | 1.224 | 0.995
3000 kPa, x1 = 0.902 | 857 | 849 | 841 | 1.735 | 1.407 | 1.152
3000 kPa, x1 = 1 | 870 | – | 854 | 1.992 | – | 1.417
3010 kPa, x1 = 1 | – | 862 | – | – | 1.675 | –
6000 kPa, x1 = 0.101 | 712 | 703 | 696 | 0.502 | 0.428 | 0.371
6000 kPa, x1 = 0.202 | 736 | 727 | 720 | 0.599 | 0.496 | 0.414
6000 kPa, x1 = 0.299 | 758 | 750 | 742 | 0.717 | 0.574 | 0.465
6000 kPa, x1 = 0.403 | 779 | 770 | 763 | 0.851 | 0.676 | 0.541
6000 kPa, x1 = 0.501 | 798 | 789 | 781 | 0.996 | 0.789 | 0.629
6000 kPa, x1 = 0.601 | 815 | 806 | 799 | 1.166 | 0.926 | 0.74
6000 kPa, x1 = 0.698 | 831 | 822 | 815 | 1.364 | 1.091 | 0.88
6000 kPa, x1 = 0.799 | 846 | 837 | 830 | 1.58 | 1.276 | 1.039
6000 kPa, x1 = 0.902 | 859 | 851 | 843 | 1.8 | 1.463 | 1.199
6000 kPa, x1 = 1 | 872 | 864 | 856 | 2.058 | 1.727 | 1.462
9000 kPa, x1 = 0.101 | 715 | 706 | 699 | 0.519 | 0.446 | 0.386
9000 kPa, x1 = 0.202 | 739 | 730 | 723 | 0.623 | 0.518 | 0.433
9000 kPa, x1 = 0.299 | 761 | 752 | 745 | 0.746 | 0.6 | 0.489
9000 kPa, x1 = 0.403 | 781 | 773 | 765 | 0.886 | 0.707 | 0.569
9000 kPa, x1 = 0.501 | 800 | 792 | 784 | 1.038 | 0.825 | 0.661
9000 kPa, x1 = 0.601 | 817 | 809 | 801 | 1.214 | 0.967 | 0.776
9000 kPa, x1 = 0.698 | 833 | 825 | 817 | 1.417 | 1.138 | 0.919
9000 kPa, x1 = 0.799 | 848 | 840 | 832 | 1.639 | 1.327 | 1.083
9000 kPa, x1 = 0.902 | 861 | 853 | 846 | 1.865 | 1.519 | 1.247
9000 kPa, x1 = 1 | 874 | 866 | 859 | 2.123 | 1.779 | 1.491
12000 kPa, x1 = 0.101 | 718 | 709 | 702 | 0.537 | 0.463 | 0.402
12000 kPa, x1 = 0.202 | 742 | 733 | 726 | 0.647 | 0.539 | 0.452
12000 kPa, x1 = 0.299 | 764 | 755 | 748 | 0.776 | 0.626 | 0.512
12000 kPa, x1 = 0.403 | 784 | 775 | 768 | 0.922 | 0.739 | 0.596
12000 kPa, x1 = 0.501 | 802 | 794 | 787 | 1.079 | 0.862 | 0.692
12000 kPa, x1 = 0.601 | 819 | 811 | 804 | 1.261 | 1.009 | 0.812
12000 kPa, x1 = 0.698 | 835 | 827 | 820 | 1.471 | 1.184 | 0.959
12000 kPa, x1 = 0.799 | 850 | 842 | 834 | 1.698 | 1.378 | 1.126
12000 kPa, x1 = 0.902 | 863 | 856 | 848 | 1.93 | 1.575 | 1.295
12000 kPa, x1 = 1 | 877 | 869 | 861 | 2.209 | 1.835 | 1.534
15000 kPa, x1 = 0.101 | 720 | 712 | 705 | 0.555 | 0.48 | 0.418
15000 kPa, x1 = 0.202 | 744 | 736 | 729 | 0.671 | 0.561 | 0.472
15000 kPa, x1 = 0.299 | 766 | 758 | 751 | 0.806 | 0.653 | 0.536
15000 kPa, x1 = 0.403 | 786 | 778 | 771 | 0.958 | 0.771 | 0.624
15000 kPa, x1 = 0.501 | 805 | 797 | 789 | 1.121 | 0.898 | 0.724
15000 kPa, x1 = 0.601 | 822 | 814 | 806 | 1.308 | 1.051 | 0.847
15000 kPa, x1 = 0.698 | 837 | 829 | 822 | 1.524 | 1.23 | 0.998
15000 kPa, x1 = 0.799 | 852 | 844 | 837 | 1.757 | 1.429 | 1.17
15000 kPa, x1 = 0.902 | 865 | 858 | 850 | 1.995 | 1.631 | 1.343
15000 kPa, x1 = 1 | 878 | 871 | 863 | 2.272 | 1.888 | 1.578
